Measurements as given in US9334498B2, “Methods and compositions for modulating MIR-204 activity” (UAB Research Foundation, priority 2012, dated 2016).
Oligonucleotides are written 5' to 3', each unit as a sugar letter and its base; * is a phosphorothioate linkage, no mark a phosphodiester; rarer units and linkages stand in square brackets, end groups in braces. Plain capitals give the bases only. {Chol} = cholesterol; m = 2'-O-methyl

Tests used:
miR-204 = test: Antagomir pilot studies in vivo: islet miR-204 expression; set-up: species or system mouse; conditions: after just one injection
Procedure: miR-204 knock down (in vitro and in vivo). We will utilize the miR204 inhibitor oligo (IN-320505-05; meridian Hairpin Inhibitor rno-miR-204) or scrambled control (IN-001005-01-05) (Dharmacon) to perform transfection experiments in INS-1 cells and primary human islets as mentioned above and described herein. This microRNA inhibitor oligonucleotide specifically binds to miR-204 and targets it for degradation. In fact, 72 h after transfection we saw a significant ˜5-fold reduction in miR-204 expression, but no effect on other microRNAs (data not shown) confirming the effectiveness and specificity of this approach. […] Therefore, after diabetes has been confirmed by blood glucose readings over 250 mg/dL on two consecutive days, these obese and diabetic male mice and their lean, non-diabetic littermates will again be divided into three treatment groups and will receive antagomir, mutant antagomir or saline injections as described for the wild-type mice. In all mice, blood glucose levels will be assessed daily (by glucometer) and serum will be collected before injection and prior to sacrifice for measurement of insulin levels (by ELISA)(17). […]

STAT3 = target: T1, STAT3 (Rattus norvegicus, UniProt P52631); test: STAT3 inhibition in INS-1 cells, expression by qRT-PCR; format: cell-based
T1 construct: endogenous in cells; host or cells: INS-1 rat beta cells
T1 sequence (P52631 whole entry): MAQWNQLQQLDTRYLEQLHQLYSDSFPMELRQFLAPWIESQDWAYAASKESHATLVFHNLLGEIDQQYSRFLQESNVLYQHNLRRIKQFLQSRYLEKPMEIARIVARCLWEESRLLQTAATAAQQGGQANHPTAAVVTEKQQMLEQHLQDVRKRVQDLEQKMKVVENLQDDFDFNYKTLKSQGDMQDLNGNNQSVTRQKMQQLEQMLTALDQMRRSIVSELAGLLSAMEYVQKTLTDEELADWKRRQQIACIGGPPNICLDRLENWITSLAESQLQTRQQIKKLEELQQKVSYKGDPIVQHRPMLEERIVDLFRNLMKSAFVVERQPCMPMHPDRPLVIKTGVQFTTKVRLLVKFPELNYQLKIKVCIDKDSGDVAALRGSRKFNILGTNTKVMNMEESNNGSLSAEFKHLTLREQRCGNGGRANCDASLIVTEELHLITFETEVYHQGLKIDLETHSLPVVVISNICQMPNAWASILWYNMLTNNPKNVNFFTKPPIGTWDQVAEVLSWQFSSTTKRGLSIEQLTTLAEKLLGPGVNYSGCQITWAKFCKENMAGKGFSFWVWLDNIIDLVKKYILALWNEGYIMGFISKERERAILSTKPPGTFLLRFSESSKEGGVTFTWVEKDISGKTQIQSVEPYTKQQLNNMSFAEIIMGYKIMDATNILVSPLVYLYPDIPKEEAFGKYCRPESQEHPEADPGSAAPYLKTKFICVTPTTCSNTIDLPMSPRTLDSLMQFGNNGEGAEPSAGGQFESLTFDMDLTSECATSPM
Procedure: FIG. 18. Effects of TXNIP and diabetes on beta cell miR-204 expression. Expression of miR-204 was assessed by qRT-PCR in (A) INS-1 cells overexpressing TXNIP (INS-TXNIP) and control (INS-LacZ) cells, (B) primary islets of TXNIP-deficient HcB-19 and C3H control mice, and (C) primary islets of beta-cell-specific TXNIP knockout bTKO and lox/lox control mice. (D) TXNIP effects on STAT3 activation were determined by immunoblotting for phospho-STAT3 (p-STAT3) and total STAT3 in INS-TXNIP and control INS-LacZ cells. (E) To determine the role of STAT3 in miR-204 expression, INS-1 cells were incubated with the STAT3 inhibitor STATTIC (2 μM for 48 hr) or vehicle (DMSO) and the expression of miR-204 was detected by qRT-PCR. (F) To assess the effect of diabetes on miR-204 expression, primary islets of 10-week old, male, diabetic ob/ob or lean control mice were analyzed by qRT-PCR. Bars represent means±SEM; n=3-5 independent experiments.
miR-204 is encoded within intron 6 of the TRPM3 gene (transient receptor potential melastatin 3, a cation-selective channel) and is transcribed in the same direction as TRPM3^30. Since miR-204 and TRPM3 are therefore sharing the same promoter, we deduced that, if TXNIP were to regulate miR-204 expression at the transcriptional level, TRPM3 would be co-regulated in parallel. […]

| Compound | reduction in islet miR-204 expression (miR-204) [fold] | TRPM3 (host gene) expression (STAT3) | miR-204 expression (STAT3; 2 μM for 48 hr vs DMSO) |
| --- | --- | --- | --- |
| 5′-mA(*)mG(*)mGmCmAmUmAmGmGmAmUmGmAmCmAmAmAmG mG(*)mG(*)mA(*) mA(*)-3Chl (antisense mA*mG*mGmCmAmUmAmGmGmAmUmGmAmCmAmAmAmGmG*mG*mA*mA*{Chol}) [miR-204 antagomir] | ~2 | – | – |
| O=[N+]([O-])c1ccc2c(c1)S(=O)(=O)C=C2 [STATTIC] | – | significantly induced | significantly induced |
